The text below walks through data of US20040235931A1, “Inhibition of herpes virus replication” (priority 2003, published 2004).

Data set [1] concerns Vero cells. In words: MTT toxicity assay in Vero cells. The data set is classed as cell-based, African green monkey. Conditions: MTT, 24, 48 and 72 hours. Here is the method: (§1) African green monkey kidney cells (Vero) and Human neonatal lung fibroblasts cells (MRC-5) were obtained from the American Type Culture Collection, (Rockville, Md.). Vero cells were grown and maintained in Medium 199 supplemented with 5% fetal bovine serum, 0.075% NaHCO3 and 50 μg/ml gentamycin sulfates. MRC-5 cells were grown and maintained in Minimal Essential Medium with Earle's Balanced Salt Solution containing 2 mM L-glutamine supplemented with 10% fetal bovine serum, 0.lmM nonessential amino acids, 1 mM sodium pyruvate, 2% sodium bicarbonate and 50 μg/ml gentamycin sulfate.
(§2) Cells were exposed to drug treated media of varying concentrations. […] I3C concentrations used in these studies were 50% and 75% of the CD50. Cells were seeded onto a 96 well at 10,000 cells/well and grown for 24 hours. Twelve different serially diluted concentrations of I3C were then incubated with the cells for 24, 48 and 72 hours and colorimetric readings were taken at these time points using the MTT reagent. Controls included in the 96 well plate were, media alone that contained no cells but with I3C, media with cells but no I3C, and plain media with 0.2% DMSO and no cells or drug. At 24, 48 and 72 hours a sigmoidal curve was generated for each time period and the data analyzed. Approximately, 500 μM was the concentration at which 50 percent of the cells died (CD50).

The test system of data set [2] is MRC-5 cells. Put plainly: MTT toxicity assay in MRC-5 cells. Particulars: MTT, 24, 48 and 72 hours. It counts as cell-based, Human. Here is the method: as §1, §2
In data set [3] the test system is HSV-1. Put plainly: HSV-1 replication in Vero cells, plaque forming units (pfu) titration. The data set is classed as cell-based, herpes simplex virus type 1 (HSV-1). How it is done:
Cultures of African green monkey kidney cells (Vero) cells, obtained from the American Type Culture Collection, Rockville, Md., were grown to confluence in Medium 199 supplemented with 5% fetal bovine serum, 0.075% NaHCO3, and 50 μg/ml gentamycin sulfate in 25 cm^2 tissue culture flasks. Cells were infected with HSV-1 at a multiplicity of infection (moi) of one and incubated at room temperature for one hour to allow for virus attachment to and penetration of the cell. Under these conditions, approximately half of the cells are infected with virus. Thereafter, the cultures were rinsed three time with media and incubated in medium containing 133 μM, 267 μM, or 400 μM I3C prepared in 0.2% dimethyl-sulfoxide (DMSO). Controls were treated identically, but were incubated without the I3C.
Upon addition of the medium to the cultures and at 24 hours time periods thereafter, i.e., 0 hours, 24 hours, 48 hours, and 72 hours after addition of the drug, cells and medium were frozen at −70° C. Samples were then thawed, sonicated and titrated on Vero cells to determine the number of plaque forming units (pfu's) of virus produced by each culture.
Vero cell cultures were infected with HSV-1 as described above in Example 1 except that the cells were treated with 267 μM of I3C for 6, 12, or 24 hours prior to infection. Cells were infected with HSV-1 at an moi of 1 for 1 hour. Following removal of the unabsorbed virus, the infected cells were incubated in media containing 0.2% DMSO (control cells) or in media containing 267 μM of I3C (test cells) At 24, 48, and 72 hours after infection, the number of pfu's present in the cells and medium of the I3C -treated cultures was determined.

Data set [4] has as its system acyclovir resistant HSV-1. Put plainly: Acyclovir-resistant HSV-1 replication in Vero cells, pfu determination. It counts as cell-based, herpes simplex virus type 1 (HSV-1). Here is the method:
Vero cell cultures were infected with acyclovir resistant HSV-1 at an moi of one for one hour. Test cells were treated with 267 μM of I3C immediately after or 24 hours prior to infection. At 24, 48, and 72 hours after infection, the number of pfu's present in the test cell pre-treated with I3C or treated with I3C post infection were determined.

Data set [5] relates to HSV-2. In words: HSV-2 replication in Vero cells, pfu determination. The data set is classed as cell-based, herpes simplex virus type 2 (HSV-2). Conditions: 267 μM I3C. Here is the method: Vero cell cultures that had been pretreated with 267 μM of I3C were infected with HSV-2 at an moi of one for 1 hour At 24, 48, and 72 hours after infection, the number of pfu's present in the cells and medium of the I3C pre-treated cultures were determined. In addition, Vero cells were infected with HSV-2 at an moi of one for 1 hour, and thereafter the cultures were rinsed three time with media and incubated in medium containing 267 μM prepared in 0.2% dimethyl-sulfoxide (DMSO). At 24, 48, and 72 hours after infection, the number of pfu's present in the test cell pre-treated with I3C or treated with I3C post infection were determined.

Data set [6] concerns HSV-1. Put plainly: HSV-1 replication in MRC-5 cells, pfu determination. The data set is classed as cell-based, herpes simplex virus type 1 (HSV-1). Particulars: 375 μM I3C, pretreatment for 24 or 36 hours prior to infection. Here is the method: MRC-5 cell cultures were infected with HSV-1 as described above in Example 1 except that the cells were treated with 375 μM of I3C following infection or for 12, 24, or 36 hours prior to infection. Cells were infected with HSV-1 at an moi of 1 for 1 hour. Following removal of the unabsorbed virus, the infected cells were incubated in media containing 0.2% DMSO (control cells) or in media containing 375 μM of I3C (test cells) At 24, 48, and 72 hours after infection, the number of pfu's present in the cells and medium of the cultures treated with I3C prior to or after infection was determined.

Data set [7] deals with HSV. In words: Direct inactivation of HSV by incubation with I3C, plaque assay. Conditions: HSV mixed with I3C solution (267 μM); 1, 10, 30 and 60 minutes; compared to control virus. How it is done:
To determine if I3C could directly inactivate […] studies were done in which HSV was mixed with a solution of I3C (267 μM). Samples were taken at 1, 10, 30 and 60 minutes and the presence of infectious virus determined by the plaque assay.

For `OCc1c[nH]c2ccccc12` [I3C, indole-3-carbinol], the “CD50 (concentration at which 50 percent of the cells died)” value in data set [1] and in data set [2] was about 500 µM in each case. Also, in data set [3] (267 μM I3C, Vero cells incubated 12 to 24 hours prior to infection), the “inhibition of HSV replication” value is “dramatic and complete”. In addition, the HSV replication result in data set [3] (267 μM I3C, Vero cells pre-incubated 6 hours prior to infection, 24, 48, 72 hours after infection) is “proceeded at a reduced rate for 24 hours and then rapidly decreased at 48 and 72 hours to undetectable levels”. In data set [3] (400 μM I3C continuously post infection, Vero cells, by 72 hours), the “infectious HSV particles in cultures” value is “virtually undetectable”. In data set [3] (400 μM I3C post infection, Vero cells, moi 1, at 24 hours), the “inhibition of formation of infectious virus particles” value is on record as “more than 99%”. Besides, the “dose dependence of inhibition of virus replication” value in data set [3] (133, 267, 400 μM I3C post infection, Vero cells) is given as “dose dependent”. Also, the “replication of acyclovir-resistant HSV” value in data set [4] (267 μM I3C post infection, Vero cells, 24, 48, 72 hours after infection) is “proceeded at a reduced rate for 24 hours and then rapidly decreased at 48 and 72 hours to undetectable levels”. In addition, the “inhibition of acyclovir-resistant HSV 1 replication” value in data set [4] (267 μM I3C, Vero cells incubated 24 hours prior to infection) was “dramatic and complete”. The “HSV-2 replication, first 24 hours” value in data set [5] (Vero cells treated 24 hours pre-infection) and in data set [5] (Vero cells treated post infection) was “proceeded at a reduced rate for 24 hours” in each case. Besides, the “HSV-2 replication at 48 and 72 hours” value was “decreased at 48 and 72 hours” in data set [5] (post-treated Vero cells); “decreased at 48 and 72 hours” in data set [5] (pre-treated Vero cells). Further, in data set [6], the “HSV-1 replication in MRC5 cells” value is “inhibition of HSV-1 replication”. In addition, the “direct inactivation of HSV” value in data set [7] was “no significant inactivation of HSV”.
